One molecule from US6762052B1, “DNA sequence encoding flavin-containing monooxygenase” (priority 1993, dated 2004) can be followed below.

As a reminder, the Km is the substrate concentration at which the rate is half of its maximum.

For data set [1], the system named is Human Liver Microsomes. As to the kind of experiment: in vitro. As for the experimental part: (§1) In all cases examined, product formation was directly determined by HPLC analysis of organic extracts.
(§2) Human liver samples were obtained from the Department of Surgery (UCSF) and with a protocol from the Medical College of Wisconsin (S. Wrighton).
(§3) A typical incubation mixture (final volume 0.25 ml) contained hepatic microsomes (0.4 mg of protein) or bacterial lysate (2.3 mg of protein), NADP^+ (0.5 mM), glucose-6-phosphate (2.0 mM), glucose-6-phosphate dehydrogenase (1 IU), DETAPAC (0.8 mM) and potassium phosphate buffer (50 mM, pH 8.4). Reactions were initiated by the addition of substrate and terminated at designated times by the addition of three volumes of cold dichloromethane, mixed thoroughly and centrifuged to separate the aqueous and organic fractions. N- and S-oxide metabolic products in the resulting organic extracts were separated and quantified by HPLC. […] Thiobenzamide and thiobenzamide S-oxide were quantified with this same, HPLC system employing a mobile phase of methanol/acetonitrile/60% perchloric acid (20:80:0.016, v/v) which gave retention volumes of 2.7 and 7.0 ml, respectively. […] The major metabolites formed in the incubations were also subjected to mass spectral analysis after extraction of isolated HPLC fractions.
(§4) RPLC of the S-oxide diastereomers with a Chiracel OT chiral analytical column (25 cm×0.15 cm inner diameter, Daicel Chemical Co., New York, N.Y.) was accomplished with a Beckman system, Kratos UV detector (240 nm) and a Hewlett Packard Integrator. […] Quantification was accomplished by comparing integrated HPLC peak areas after taking into account the difference in the extinction coefficients at 240 nm. Likewise, the cis and trans S-oxide diasteromers of (+)- and (−)-2-methyl-1,-benzodithiole were separated with a Chiracel OT chiral analytical column.

Data set [2] is described as follows: in vitro. Conditions: human, pH 8.4. As for the experimental part:
as §1, §2, §3, §4

For data set [3], the target named is T1, adult human liver flavin-containing monooxygenase (form 3) (Homo sapiens, UniProt P31513, E158K).
T1 sequence (P31513 1-532 E158K): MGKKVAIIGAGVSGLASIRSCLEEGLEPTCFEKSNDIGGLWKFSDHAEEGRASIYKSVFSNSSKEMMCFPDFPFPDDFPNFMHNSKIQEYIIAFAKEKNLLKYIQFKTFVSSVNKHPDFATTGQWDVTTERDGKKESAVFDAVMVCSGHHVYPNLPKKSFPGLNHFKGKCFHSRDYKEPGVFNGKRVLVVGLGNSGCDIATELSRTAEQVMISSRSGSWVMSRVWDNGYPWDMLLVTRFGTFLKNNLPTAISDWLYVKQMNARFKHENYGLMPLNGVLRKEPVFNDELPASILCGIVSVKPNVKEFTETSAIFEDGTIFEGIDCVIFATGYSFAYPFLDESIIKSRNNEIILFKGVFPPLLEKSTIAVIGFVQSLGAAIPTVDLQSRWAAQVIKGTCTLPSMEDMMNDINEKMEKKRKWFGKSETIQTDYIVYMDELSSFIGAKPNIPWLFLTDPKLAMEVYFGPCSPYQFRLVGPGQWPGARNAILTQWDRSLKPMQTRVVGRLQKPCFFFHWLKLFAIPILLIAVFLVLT
Kind of data set: N- and S-oxygenation by cDNA-expressed HLFMO 3 (solubilized protein from E. coli transformed with pTrcHLFMO 3), HPLC. As to the method: as §1
Competent NM522 Escherichia coli cells were transformed with the pTrc HLFMO 3 plasmid. […] After inoculation with a fresh overnight culture of NM522 containing pTrcHLFMO 3, the culture was grown at 37° C. until Abs600 was approximately 0.5 absorbance units. Finally, IPTG (0.8 mM) was added to the culture to induce expression of protein and the culture was left to grow overnight at 37° C.
The bacterial pellet was resuspended in 5 volumes of 50 mM potassium phosphate buffer (pH 8.4) containing 1% Triton X-100, 0.1% L-, α-phosphatidylcholine (L-α-lecithin) from egg yolk, 500 μM PMSF, and 1 mM EDTA. The mixture was sonicated and then centrifuged to remove cellular debris. As a control, bacterial lysate extracts from IPTG-induced pTrc99A-transformed NM522 cells (i.e., pTrc99A without the HLFMO 3 cDNA insert) were prepared under the same conditions.
as §2, §3, §4

In the case of `NC(=S)c1ccccc1` [Thiobenzamide, thiobenzamide], the “Vmax, Human Liver Microsomes” value in data set [1] is recorded as 1.3 nmol/min/mg of protein. Moreover, in data set [2], the Km amounted to 14.9 µM. Besides, the “substrate activity for human liver microsomes and expressed HLFMO 3, in words” value in data set [3] is given as “excellent substrates”. The “pH of maximum S-oxygenase activity” value in data set [3] (in the presence of microsomes and expressed HLFMO 3) is given as ~8.5.
